Data from patent publication US20080199439A1, “IAP-binding cargo molecules and peptidomimetics for use in diagnostic and therapeutic methods” (priority 2003, published 2008).

Tests used:
recombinant XIAP-BIR3 = recombinant XIAP-BIR3 (Homo sapiens, UniProt P98170); settings: 550 nm peak of free AVPC-badan; binding to recombinant XIAP-BIR3
Text: Without wishing to be bound by theory, upon binding to an IAP protein, the labeled IAP-binding cargo molecule packs into the groove of the BIR3 (SEQ ID NO: 15) causing a detectable shift in emission maximum and intensity when the environment of the fluorophore changes from water to the hydrophobic pocket of the protein.

HeLa cells [1] = settings: compared with Smac N-terminal tetrapeptide AVPI
Description: This example illustrates the use of an labeled IAP-binding cargo molecule to bind with IAP within cells and tissues and inducing apoptosis.

HeLa cells [2] = system: HeLa cells; parameters: dose or concentration left out as unconfirmed; settings: 48 minutes, confocal microscopy
HeLa cells [3] = assay: Competition of AVPC-badan emission by AVPF in HeLa cells; type: cell-based; settings: AVPC-badan 0.1 mM, 100 equivalents AVPF, 30 minutes, emission 435-485 nm
Description: (§1) The emission between 435-485 nm after exposure of cells for 30 minutes is shown in each case. […] The emission between 385-470 nm and >505 nm after exposure of cells for 36 minutes is shown in each case;
(§2) Thus, the primary action of the IAP binding cargo molecule appears to be by binding to IAP proteins, thus releasing any activated caspases and thereby promoting apoptosis.

A498 cells = assay: Competition of AVPC-badan emission by AVPF in A498 cells; type: cell-based; settings: AVPC-badan 8 mM, 100 equivalents AVPF, 36 minutes, emission 385-470 nm and >505 nm
Description: as §1, §2

recombinant XIAP-BIR3, sequence (P98170 265-330 limits assumed): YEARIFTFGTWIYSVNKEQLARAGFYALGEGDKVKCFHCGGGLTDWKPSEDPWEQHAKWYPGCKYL

CC(N)C(=O)NC(C(=O)N1CCCC1C(=O)NC(CSCC(=O)c1ccc2cc(N(C)C)ccc2c1)C(=O)O)C(C)C (centres unmarked) [AVPC-badan]
change of emission peak and intensity on binding (recombinant XIAP-BIR3): shifts to 542 nm and increases in intensity | induction of apoptosis (kinetics) (HeLa cells [1]): induced apoptosis with kinetics similar to those of the Smac N-terminal tetrapeptide AVPI | intracellular localization of the peptide (HeLa cells [2]): diffuse cytosolic distribution

AVPF: competitor peptide AVPF (SEQ ID NO: 19)
effect of competitor on intensity of AVPC-badan emission (HeLa cells [3]): intensity of emission was found to diminish | effect of competitor on intensity of AVPC-badan emission (A498 cells): intensity of emission was found to diminish
